Legend:
[1] = target: T1, SIK2 (Homo sapiens, UniProt Q9H0K1); experiment: ADP-Glo kinase assay, SIK2; assay type: biochemical; details: ADP-Glo SIK kinase assay
T1 construct: purchased ThermoFisher Scientific PV4792
In short: (§1)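 Kinase reactions (enzyme-substrate mix plus ATP) ran 120 min at room temperature for each of SIK3 and SIK2. Signal came from ADP-Glo: unconsumed ATP removed (40 min), ADP reconverted and detected by luciferase/luciferin (30 min), with luminescence tracking kinase activity. 10 μM staurosporine and 1% DMSO (final) served as controls.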

[2] = target: T2, SIK1 (Homo sapiens, UniProt P57059); experiment: ADP-Glo kinase assay, SIK1; assay type: biochemical; details: ADP-Glo SIK kinase assay
T2 construct: purchased Carna Biosciences 02-131
T2 sequence (P57059 whole entry): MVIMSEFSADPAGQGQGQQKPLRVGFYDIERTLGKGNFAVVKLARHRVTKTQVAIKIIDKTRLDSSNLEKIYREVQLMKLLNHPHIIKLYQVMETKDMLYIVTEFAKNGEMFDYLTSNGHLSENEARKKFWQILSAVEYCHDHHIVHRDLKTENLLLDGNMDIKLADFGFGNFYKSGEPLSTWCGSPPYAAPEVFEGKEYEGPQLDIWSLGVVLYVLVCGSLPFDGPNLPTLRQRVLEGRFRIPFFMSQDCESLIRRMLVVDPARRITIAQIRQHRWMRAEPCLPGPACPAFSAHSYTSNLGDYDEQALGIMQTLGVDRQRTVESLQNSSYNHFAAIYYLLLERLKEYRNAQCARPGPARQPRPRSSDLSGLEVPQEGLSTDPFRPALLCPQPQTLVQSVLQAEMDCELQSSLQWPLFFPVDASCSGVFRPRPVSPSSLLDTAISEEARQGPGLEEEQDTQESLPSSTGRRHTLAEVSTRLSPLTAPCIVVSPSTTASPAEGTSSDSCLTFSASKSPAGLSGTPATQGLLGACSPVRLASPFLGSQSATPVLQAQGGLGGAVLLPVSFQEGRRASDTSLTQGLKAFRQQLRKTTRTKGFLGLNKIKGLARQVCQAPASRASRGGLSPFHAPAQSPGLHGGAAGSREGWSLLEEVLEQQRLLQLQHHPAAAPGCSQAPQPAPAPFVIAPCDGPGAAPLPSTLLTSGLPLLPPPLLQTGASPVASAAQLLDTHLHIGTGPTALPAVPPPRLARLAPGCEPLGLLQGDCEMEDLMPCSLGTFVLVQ
In short: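 Wells with 1% DMSO or 10 μM staurosporine (final) define the control window. The kinase reaction with substrate and ATP runs 120 min at RT, followed by ADP-Glo detection: ATP depletion (40 min) and ADP-derived luminescence (30 min).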

[3] = test system: LPS triggered IL-10 secretion in monocytes; experiment: Monocytes assay: LPS-triggered IL-10 (ELISA); assay type: cell-based, human; details: LPS 200 ng/mL, supernatant after 4 h, maximal fold change vs LPS only
Protocol: (§2) SIK inhibition inhibits TNFα and increases IL-10 release in LPS triggered monocyte-derived macrophages (MdM) and dendritic cells (MdDCs) (Clark et al. 2012; Sundberg et al. 2014; Ozanne et al. 2015). This assay evaluates illustrative compounds of the invention for their inhibition of LPS-induced TNFα and LPS triggered IL-10 secretion in monocytes.
(§3) PBMCs are isolated from human blood samples (buffycoats). The buffy coat is aseptically transferred into a 50 mL Falcon tube, and diluted 1/2 in PBS. Falcon tubes are filled with 20 mL Lymphoprep™, on top of which 25 mL of the buffy coat is carefully added, tubes are centrifuged for 35 min at 400 g in temperature controlled centrifuge, without brake, at 25° C. PBMCs are aspirated from the white interface layer between sample and Lymphoprep™. PBMCs are washed five times in PBS. Cells are resuspended in RPMI 1640 complete medium supplemented with 10% FBS, 1% P/S, and cell density is determined using a hematologic analyzer (Sysmex XS-500i).
(§4) PBMCs are centrifuged at 300×g for 10 min and resuspended at a density of 1.0*10^7 cells/80 μL Miltenyi buffer (PBS, pH 7.4, 1% FBS, 2 mM EDTA).
(§5) Starting from this point of the protocol all steps are performed on ice. 20 μL of CD14+ micro-beads are added per 1.0*10^7 cells, the tube is mixed and incubated for 15 min in the fridge at 4° C. Cell suspension volume is adjusted to total volume of 100 mL using Miltenyi buffer, mixed gently and subsequently centrifuged for 10 min at 300×g. Supernantant is discarded and cell pellet is resuspended in 12 mL of Miltenyi buffer.
(§6) Four LS columns are placed in the MACS Separator (magnet) from Miltenyi Biotec, and are prewet by rinsing with 3 mL of MACS buffer per column. Three mL of cell suspension is added onto the column (max 1*10^8 of labelled cells/column), and columns are subsequently washed 3 times with 3 mL of Miltenyi buffer.
(§7) The columns are removed from the magnets, and 5 mL of Miltenyi buffer are added to the column to flush out the CD14+ fraction by pushing the plunger into the column. The flushed fractions are collected in a fresh 50 mL Falcon and volume is adjusted to 30 mL using Miltenyi buffer, cells are centrifuged for 10 min at 300×g. The obtained cell pellet is resuspended in 10 mL RPMI w/o FBS, and cell density is determined using a hematologic analyser (Sysmex XS-500i). 100 000 cells are seeded in 80 μL per well of a 96-well plate in RPMI 1640 medium supplemented with 10% FBS, 1% P/S.
(§8) A compound dilution plate is made in 100% DMSO by 3-fold dilution of 10 mM stock solution. An intermediate dilution plate (10× final concentration) is made by diluting the compound dilution plate 50-fold in RPMI medium.
(§9) 10 μL of the 10× final concentration compound is added to the cells and incubated for 1 h at 37° C. before addition of trigger. No trigger conditions/trigger conditions are spiked with equal final DMSO concentrations of 0.2% DMSO. 10 μL of 10×LPS (final conc. 200 ng/mL) solution are added to all wells except for the ‘no trigger wells’ where 10 μL medium is added. Supernatant is collected after 4 h of LPS triggering.
A Lumitrac 600 Greiner 384-well plate is coated with 40 μL of capture antibody (final concentration of 1 μg/mL in 1×PBS) and stored overnight at 4° C. The next day the plate is washed three times with PBST (PBS+0.05% Tween20) and once with PBS followed by the addition of 100 μL of blocking buffer (1% BSA−5% Sucrose) and plates are sealed and incubated for at least 4 h at RT. After washing the plate once with PBST and once with PBS, 40 μL of standard or sample are added (IL-10 standard curve is prepared using a 1/2 serial dilution starting from […]; dilutions are made in dilution buffer (PBS+1% BSA)). Plates are washed twice with PBST, and once with PBS, after which 35 μL of the detection antibody is added (final concentration 0.143 μg/mL diluted in dilution buffer) and plates are incubated for at least 2 h at RT. […]

[4] = test system: LPS-induced TNFα in monocytes; experiment: Monocytes assay: LPS-triggered TNFα (ELISA); assay type: cell-based, human; details: Homo sapiens, Monocyte, 4 h, LPS 200 ng/mL, supernatant after 4 h
Protocol: as §2, §3, §4, §5, §6, §7, §8, §9
A Lumitrac 600 Greiner 384-well plate is coated with 40 μL of capture antibody (BD Pharmingen, Cat #551220) reaching a final concentration of 1 μg/mL in 1×PBS and stored overnight at 4° C.
The plate is then washed once with PBST (PBS+0.05% Tween20) and once with PBS followed by the addition of 100 μL of blocking buffer (1% Bovine Serum Albumin (BSA)−5% Sucrose) and plates are sealed and incubated for at least 4 h at RT. After washing the plate once with PBST and once with PBS, […]. Plates are washed twice with PBST, and once with PBS, after which 35 μL of the detection antibody is added (final concentration 0.25 μg/mL diluted in dilution buffer) and plates are incubated for at least 2 h at RT. […]

[5] = target: T3, SIK3 (Homo sapiens, UniProt Q9Y2K2); experiment: ADP-Glo kinase assay, SIK3; assay type: biochemical; details: ADP-Glo SIK kinase assay
T3 construct: purchased SignalChem S12-11G-100
T3 sequence (Q9Y2K2 whole entry): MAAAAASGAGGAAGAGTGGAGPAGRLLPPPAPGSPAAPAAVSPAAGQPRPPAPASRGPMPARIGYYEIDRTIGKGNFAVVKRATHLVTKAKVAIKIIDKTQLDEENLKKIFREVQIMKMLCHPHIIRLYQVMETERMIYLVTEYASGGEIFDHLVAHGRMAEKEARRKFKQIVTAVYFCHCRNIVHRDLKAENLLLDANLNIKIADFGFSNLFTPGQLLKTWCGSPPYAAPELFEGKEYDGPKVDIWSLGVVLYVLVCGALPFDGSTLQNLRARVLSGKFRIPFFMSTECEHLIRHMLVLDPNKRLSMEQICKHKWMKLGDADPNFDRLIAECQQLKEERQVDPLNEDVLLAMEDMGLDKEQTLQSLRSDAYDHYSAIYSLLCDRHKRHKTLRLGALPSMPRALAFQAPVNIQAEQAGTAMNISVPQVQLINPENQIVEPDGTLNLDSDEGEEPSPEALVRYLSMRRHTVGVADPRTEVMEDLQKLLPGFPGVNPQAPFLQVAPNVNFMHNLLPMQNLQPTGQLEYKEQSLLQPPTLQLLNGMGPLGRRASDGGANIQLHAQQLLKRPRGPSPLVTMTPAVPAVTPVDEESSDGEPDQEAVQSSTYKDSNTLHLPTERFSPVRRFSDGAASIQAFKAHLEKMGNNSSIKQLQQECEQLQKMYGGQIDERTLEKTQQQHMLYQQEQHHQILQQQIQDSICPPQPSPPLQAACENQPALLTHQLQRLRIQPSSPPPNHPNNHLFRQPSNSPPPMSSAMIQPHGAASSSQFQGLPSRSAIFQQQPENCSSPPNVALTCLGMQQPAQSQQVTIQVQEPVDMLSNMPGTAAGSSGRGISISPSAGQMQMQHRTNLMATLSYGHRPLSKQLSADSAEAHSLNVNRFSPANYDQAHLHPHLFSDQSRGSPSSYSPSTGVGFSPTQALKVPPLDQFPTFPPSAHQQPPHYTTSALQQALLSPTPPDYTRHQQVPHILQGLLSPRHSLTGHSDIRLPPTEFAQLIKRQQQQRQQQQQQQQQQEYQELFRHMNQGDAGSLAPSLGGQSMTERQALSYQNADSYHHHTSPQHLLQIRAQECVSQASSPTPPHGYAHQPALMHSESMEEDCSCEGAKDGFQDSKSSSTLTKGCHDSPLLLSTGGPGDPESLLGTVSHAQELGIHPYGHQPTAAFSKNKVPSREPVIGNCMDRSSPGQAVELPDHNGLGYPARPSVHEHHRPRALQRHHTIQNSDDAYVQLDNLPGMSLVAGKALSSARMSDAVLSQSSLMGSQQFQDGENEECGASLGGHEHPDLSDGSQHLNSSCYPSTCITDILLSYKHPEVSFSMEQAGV
In short: as §1

T1 sequence (Q9H0K1 whole entry): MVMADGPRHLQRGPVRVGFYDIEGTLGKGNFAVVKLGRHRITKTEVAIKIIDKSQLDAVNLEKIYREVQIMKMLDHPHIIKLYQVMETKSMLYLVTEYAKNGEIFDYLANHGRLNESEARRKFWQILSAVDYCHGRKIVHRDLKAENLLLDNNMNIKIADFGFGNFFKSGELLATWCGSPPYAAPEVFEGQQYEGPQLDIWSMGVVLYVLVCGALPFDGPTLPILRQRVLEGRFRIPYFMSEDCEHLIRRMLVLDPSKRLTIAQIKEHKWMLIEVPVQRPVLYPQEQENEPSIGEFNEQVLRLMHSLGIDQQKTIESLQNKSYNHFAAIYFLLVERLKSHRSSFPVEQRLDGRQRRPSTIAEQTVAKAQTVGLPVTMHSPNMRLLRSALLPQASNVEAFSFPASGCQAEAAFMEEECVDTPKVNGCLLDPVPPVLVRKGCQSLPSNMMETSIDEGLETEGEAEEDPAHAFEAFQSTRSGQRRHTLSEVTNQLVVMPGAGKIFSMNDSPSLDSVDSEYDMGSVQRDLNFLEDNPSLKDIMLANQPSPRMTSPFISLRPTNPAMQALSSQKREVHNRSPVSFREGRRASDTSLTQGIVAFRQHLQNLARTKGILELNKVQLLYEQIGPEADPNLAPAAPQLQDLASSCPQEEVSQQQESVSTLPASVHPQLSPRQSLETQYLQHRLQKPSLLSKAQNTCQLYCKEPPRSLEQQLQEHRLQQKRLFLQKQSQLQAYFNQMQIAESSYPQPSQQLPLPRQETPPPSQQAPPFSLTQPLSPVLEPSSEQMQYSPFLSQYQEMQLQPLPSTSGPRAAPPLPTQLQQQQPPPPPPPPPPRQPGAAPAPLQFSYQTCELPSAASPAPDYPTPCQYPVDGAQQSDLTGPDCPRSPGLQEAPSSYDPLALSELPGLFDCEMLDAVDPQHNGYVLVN

| SMILES | IC50 [1] | IC50 [2] | IL-10 FCmax median [3] | EC50 [4] | IC50 [5] |
| --- | --- | --- | --- | --- | --- |
| COc1cc(-c2cnc3cc(OCCCN4CCS(=N)(=O)CC4)ccn23)cc(OC(F)F)c1C(=O)NC1CC1 [compound 327, N-cyclopropyl-2-(difluoromethoxy)-4-[7-[3-(1-imino-1-oxo-1,4-thiazinan-4-yl)propoxy]imidazo[1,2-a]pyridin-3-yl]-6-methoxy-benzamide] | 0.01 to 10 nM | 10 to 100 nM | +++ (>4.5) | 100 to 1000 nM | 0.01 to 10 nM |
| COc1cc(-c2cnc3cc(OCC4CCN(C(C)C)C4)ccn23)cc(OC(F)F)c1C(=O)NC1CC1 (centres unmarked) [Cpd 287, N-cyclopropyl-2-(difluoromethoxy)-4-[7-[(1-isopropylpyrrolidin-3-yl)methoxy]imidazo[1,2-a]pyridin-3-yl]-6-methoxy-benzamide] | 0.01 to 10 nM | 10 to 100 nM | ++ (>1.5-4.5) | 0.1 to 100 nM | 0.01 to 10 nM |
| COc1cc(-c2cnc3cc(OCCCN4CCC(F)(C(=O)O)CC4)ccn23)cc(OC(F)F)c1C(=O)NC1CC1 [Cpd 366, 1-[3-[3-[4-(cyclopropylcarbamoyl)-3-(difluoromethoxy)-5-methoxy-phenyl]imidazo[1,2-a]pyridin-7-yl]oxypropyl]-4-fluoro-piperidine-4-carboxylic acid] | 0.01 to 10 nM | 10 to 100 nM | ++ (>1.5-4.5) | 1000 to 5000 nM | 0.01 to 10 nM |
| COc1cc(-c2cnc3cc(OC[C@@H]4CCCNC4)ccn23)cc(OC(F)F)c1C(=O)NC1CC1 [Cpd 335, N-cyclopropyl-2-(difluoromethoxy)-6-methoxy-4-[7-[[(3R)-3-piperidyl]methoxy]imidazo[1,2-a]pyridin-3-yl]benzamide] | 0.01 to 10 nM | 10 to 100 nM | +++ (>4.5) | 100 to 1000 nM | 0.01 to 10 nM |
| COc1cc(-c2cnc3cc(OCCCN4CCOCC45CCC5)ccn23)cc(OC(F)F)c1C(=O)NC1CC1 [compound 281, N-cyclopropyl-2-(difluoromethoxy)-6-methoxy-4-[7-[3-(8-oxa-5-azaspiro[3.5]nonan-5-yl)propoxy]imidazo[1,2-a]pyridin-3-yl]benzamide] | 0.01 to 10 nM | 0.01 to 10 nM | +++ (>4.5) | 0.1 to 100 nM | 0.01 to 10 nM |
| COc1cc(-c2cnc3cc(OCCCN4CC(C)(O)C4)ccn23)cc(OC(F)F)c1C(=O)NC1CC1 [compound 362, N-cyclopropyl-2-(difluoromethoxy)-4-[7-[3-(3-hydroxy-3-methyl-azetidin-1-yl)propoxy]imidazo[1,2-a]pyridin-3-yl]-6-methoxy-benzamide] | 0.01 to 10 nM | 10 to 100 nM | ++ (>1.5-4.5) | 100 to 1000 nM | 0.01 to 10 nM |
| COc1cc(-c2cnc3cc(OCC4COCCN4C(C)C)ccn23)cc(OC(F)F)c1C(=O)NC1CC1 (centres unmarked) [compound 283, N-cyclopropyl-2-(difluoromethoxy)-4-[7-[(4-isopropylmorpholin-3-yl)methoxy]imidazo[1,2-a]pyridin-3-yl]-6-methoxy-benzamide] | 10 to 100 nM | 10 to 100 nM | +++ (>4.5) | 100 to 1000 nM | 0.01 to 10 nM |
| COc1cc(-c2cnc3cc(OCCCN4C(C)CCCC4C)ccn23)cc(OC(F)F)c1C(=O)NC1CC1 (centres unmarked) [compound 290, N-cyclopropyl-2-(difluoromethoxy)-4-[7-[3-(2,6-dimethyl-1-piperidyl)propoxy]imidazo [1,2-a]pyridin-3-yl]-6-methoxy-benzamide] | 0.01 to 10 nM | 10 to 100 nM | +++ (>4.5) | 0.1 to 100 nM | 0.01 to 10 nM |
| COc1cc(-c2cnc3cc(OCC(O)CN4CCS(=O)(=O)CC4)ccn23)cc(OC(F)F)c1C(=O)NC1CC1 (centres unmarked) [compound 374, N-cyclopropyl-2-(difluoromethoxy)-4-[7-[3-(1,1-dioxo-1,4-thiazinan-4-yl)-2-hydroxy-propoxy]imidazo[1,2-a]pyridin-3-yl]-6-methoxy-benzamide] | 0.01 to 10 nM | 10 to 100 nM | +++ (>4.5) | 100 to 1000 nM | 0.01 to 10 nM |
| COc1cc(-c2cnc3cc(OCCCN4CC5CCC(C4)O5)ccn23)cc(OC(F)F)c1C(=O)NC1CC1 [compound 291, N-cyclopropyl-2-(difluoromethoxy)-6-methoxy-4-[7-[3-(8-oxa-3-azabicyclo[3.2.1]octan-3-yl)propoxy]imidazo[1,2-a]pyridin-3-yl]benzamide] | 0.01 to 10 nM | 10 to 100 nM | +++ (>4.5) | 0.1 to 100 nM | 0.01 to 10 nM |
| COc1cc(-c2cnc3cc(OCCCN4CCCCC4)ccn23)cc(OC(F)F)c1C(=O)NCC#N [compound 356, N-(cyanomethyl)-2-(difluoromethoxy)-6-methoxy-4-[7-[3-(1-piperidyl)propoxy]imidazo[1,2-a]pyridin-3-yl]benzamide] | 0.01 to 10 nM | 10 to 100 nM | +++ (>4.5) | 100 to 1000 nM | 0.01 to 10 nM |
| CCOC(=O)C1(C)CCN(CC(O)COc2ccn3c(-c4cc(OC)c(C(=O)NC5CC5)c(OC(F)F)c4)cnc3c2)CC1 (centres unmarked) [compound 382, ethyl 1-[3-[3-[4-(cyclopropylcarbamoyl)-3-(difluoromethoxy)-5-methoxy-phenyl]imidazo[1,2-a]pyridin-7-yl]oxy-2-hydroxy-propyl]-4-methyl-piperidine-4-carboxylate] | 0.01 to 10 nM | 10 to 100 nM | ++ (>1.5-4.5) | 0.1 to 100 nM | 0.01 to 10 nM |
| CCOC(=O)C1CCN(CCCOc2ccn3c(-c4cc(OC)c(C(=O)NC5CC5)c(OC(F)F)c4)cnc3c2)CC1 [compound 377, ethyl 1-[3-[3-[4-(cyclopropylcarbamoyl)-3-(difluoromethoxy)-5-methoxy-phenyl]imidazo[1,2-a]pyridin-7-yl]oxypropyl]piperidine-4-carboxylate] | 0.01 to 10 nM | 10 to 100 nM | ++ (>1.5-4.5) | 0.1 to 100 nM | 0.01 to 10 nM |

— patent publication US12264156B2, “Compounds and pharmaceutical compositions thereof for the treatment of diseases” (GALAPAGOS NV, priority 2018, dated 2025)
